The test system of one test is Staphylococcus aureus. More on the design: method as in PMID 9461679, PMID 8657743, PMID 12521264. Conditions: cited from earlier work.
The test system of a further test is Bacillus subtilis. Also noted: method as in PMID 9461679, PMID 8657743, PMID 12521264. Conditions: cited from earlier work.
In the next test the test system is pERK1/2. The test is described as follows: Western blotting, 6-OAP/BOR. It counts as cell-based, human. Conditions: MM.1S; BOR 3 nM for 12 to 24 h with 6-OAP 5 µM. How it is done:
Cell pellets were lysed in RIPA buffer containing 50 mM Tris pH 8.0, 150 mM NaCl, 0.1% SDS, 0.5% deoxycholate, 1% NP-40, 1 mM DTT, 1 mM NaF, 1 mM sodium vanadate, and protease inhibitors cocktail (Sigma). For immunoprecipitations, cells were lysed on ice for 15 minutes in RIPA buffer. Lysates were centrifuged. The supernatant was incubated with indicated antibodies overnight, after which protein A/G Plus beads (Santa Cruz Biotechnology) were added and incubated for 3 h. The beads were washed 4 times in RIPA buffer. Then the beads were resuspended in 1× sample buffer and boiled for 3 min. Protein extracts were quantitated and loaded on 8% to 12% sodium dodecyl sulfate polyacrylamide gel, electrophoresed, and transferred to a nitrocellulose membrane (Whatman). The membrane was incubated with primary antibody, washed, and incubated with horseradish peroxidase (HRP)–conjugated secondary antibody (Pierce). Detection was performed by using a chemiluminescent western detection kit (Cell Signaling). […]
(In general: In western blotting, separated proteins are transferred to a membrane and probed.)

Another test has as its system MM.1R cells. The test is described as follows: MTT assay, Dex with or without 6-OAP. Conditions: Dex 1 to 2 µM alone, 48 h, MTT. Format: cell-based, human. The protocol: U266, RPMI 8226 cells (1×10^4), primary CD138+ cells, PBMCs (5×10^4), and BMSCs (1×10^4) were cultured in 96-well dishes and incubated without or with 6-OAP at indicated concentration for 48 h. MM.1S and MM.1R cells (2×10^4) were seeded into 96-well dishes and pre-cultured for 24 h, then treated with 6-OAP for 48 h. Cell proliferation was determined by MTT assay. Cell viability was estimated by trypan blue dye exclusion.
Figure 4 6-OAP enhances cytotoxicity of Dox, Dex and BOR to MM cells. (A through C) MM.1S cells were treated for 48 h with Dox (A), Dex (B) or BOR (C) in the presence or absence of 6-OAP at 5 µM. MTT assay was used to test the proliferation of MM.1S cells. (D) MM.1R cells were treated for 48 h with Dex in the presence or absence of 6-OAP at 7.5 µM. MTT assay was used to test the proliferation of MM.1R cells. *p<.001,** p<.05. (E) MM.1S cells were cultured with control media (con), 6-OAP (O, 5 µM), BOR (B, 3 nM), or 6-OAP (5 µM) plus BOR (3 nM) (OB) for indicated time points. Cells were then lysed and subjected to Western blotting using indicated antibodies. CF, cleavage fragment.
(Tetrazolium dyes change colour on reduction, which living cells bring about.)

This is an account of results in PMC3130785, “Small Compound 6-O-Angeloylplenolin Induces Mitotic Arrest and Exhibits Therapeutic Potentials in Multiple Myeloma” (PLoS ONE, 2011).

Consider `CC(C)C(=O)OC1C2C(CC(C)C3C=CC(=O)C31C)OC(=O)C2C` (stereo not drawn) [6-O-isobutyroylplenolin], for which the antibacterial activity entry in the test with Staphylococcus aureus and in the test on Bacillus subtilis was “exhibit antibacterial activity” each time.
With `C=C(C)C(=O)OC1C2C(CC(C)C3C=CC(=O)C31C)OC(=O)C2C` (stereo not drawn) [6-O-methylacrylylplenolin], the antibacterial activity entry with Staphylococcus aureus and with Bacillus subtilis was “exhibit antibacterial activity” each time.
`CC(C)C[C@H](NC(=O)[C@H](Cc1ccccc1)NC(=O)c1cnccn1)B(O)O` [BOR, bortezomib, reference compound]: the “6-OAP-induced pERK1/2 upregulation” value in the test with pERK1/2 is listed as “dramatically inhibited 6-OAP-induced pERK1/2 upregulation”.
Consider `C[C@@H]1C[C@H]2[C@@H]3CCC4=CC(=O)C=C[C@]4(C)[C@@]3(F)[C@@H](O)C[C@]2(C)[C@@]1(O)C(=O)CO` [Dex, Dexamethasone, reference compound], for which the “inhibition of cell proliferation” value in the test on MM.1R cells is “slight inhibition rate”.
